The values that follow come from ChEMBL document CHEMBL1201862, “PubChem BioAssay data set” (2004).

Holding throughout (assay): inhibition of tumour cell growth, NCI panel, 48 h
For experiment [1], the system named is ACHN.
In experiment [2] the test system is CAKI-1.
Experiment [3] has as its system EKVX.
The subject of experiment [4] is HOP-62.
Experiment [5] deals with HT-29.
The test system of experiment [6] is MDA-N.
In experiment [7] the test system is Malme-3M.
In experiment [8] the test system is NCI-H226.
The test system of experiment [9] is NCI-H460.
Experiment [10] relates to OVCAR-3.
For experiment [11], the system named is OVCAR-4.
Experiment [12] concerns RPMI-8226.
Experiment [13] concerns SK-MEL-5.
The subject of experiment [14] is SK-OV-3.
For experiment [15], the system named is SN12C.
The test system of experiment [16] is SNB-19.
The test system of experiment [17] is TK-10.
Experiment [18] deals with U-251.
The subject of experiment [19] is T47D.

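These data come from cells grown in 96-well plates and exposed to compound for 48 hours at five concentrations. Here, GI50 denotes the concentration required for 50% inhibition of growth.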 Activity calls are given as the source filed them. Cut-off read from the data, not from the text of the source: active = GI50 up to about 1.1 µM and inactive = higher. Where only a bound is given, the exact number is not on record here.

Regarding `O=C1NCCCNCCCNCCCNC(=O)c2cccc1n2`, the GI50 in experiment [1], in experiment [2], in experiment [3], in experiment [4], in experiment [5] and in experiment [6] was > 100 µM (inactive) each time. The GI50 in [7], in [8], in [9], in [10], in experiment [11] and in experiment [12] was > 100 µM (inactive) in each case. Further, the GI50 in experiment [13], in [14], in experiment [15], in experiment [16], in experiment [17] and in experiment [18] was > 100 µM (inactive) throughout.

As to `COc1cc(OC)c2nc(C)c(CCCl)c(Cl)c2c1`, the GI50 in experiment [1], in [2], in experiment [3], in experiment [4], in [5] and in experiment [6] was > 100 µM (inactive) in each case. The GI50 in experiment [7], in [8], in experiment [9], in experiment [10], in experiment [11] and in [12] was > 100 µM (inactive) throughout. Further, the GI50 in experiment [13] was > 10 µM (inactive); in [14] it was > 100 µM (inactive); in experiment [15] it was > 100 µM (inactive); in [16], > 100 µM (inactive); in experiment [17] it was > 100 µM (inactive); in [18], > 100 µM (inactive).

Take `COc1cc2nc(-c3cccs3)nc(N3CCN(c4ccccc4)CC3)c2cc1OC`: the GI50 in experiment [1], in [2], in experiment [3], in experiment [4], in experiment [5] and in experiment [7] was > 100 µM (inactive) throughout. Further, the GI50 in experiment [8], in experiment [9], in [10], in [11], in experiment [12] and in experiment [13] was > 100 µM (inactive) each time. For the same compound, the GI50 is > 100 µM (inactive) in [14]; > 100 µM (inactive) in [15]; 68.1 µM (inactive) in [16]; > 100 µM (inactive) in [19]; > 100 µM (inactive) in [17]; > 100 µM (inactive) in experiment [18].

For the compound `C/C(=N\Nc1nc2ccccc2s1)c1cccnn1`, the GI50 in [1] is 0.718 µM (active); in [2] it was 1.04 µM (active); in experiment [3] it was 0.753 µM (active); in experiment [4], 1.63 µM (inactive); in [5], 3.24 µM (inactive); in [6] it was 8.63 µM (inactive). For the same compound, the GI50 in experiment [8] is 2.75 µM (inactive); in experiment [9], 2.65 µM (inactive); in experiment [10] it was 0.406 µM (active); in [11], 76 µM (inactive); in [12] it was 1.4 µM (inactive); in experiment [13], 1.31 µM (inactive). The GI50 is 4.29 µM (inactive) in experiment [14], 2.42 µM (inactive) in experiment [15], 8.2 µM (inactive) in experiment [16] and 3.68 µM (inactive) in [18].
